The source of these data is patent US20250019708A1, “METHODS FOR THE TREATMENT OF HRD CANCER AND BRCA-ASSOCIATED CANCER” (INSTITUT CURIE, priority 2021, published 2025).

The subject of one assay is NMNAT1−/− RPE-1 cells. Kind of assay: Survival assay with PARP inhibitor. The settings on record: versus WT RPE-1; FIG. 1g. It is filed as cell-based. From the text:
FIG. 1: a, Quantification (left) and representative images (right) of clonogenic formation of wild type (WT) and BRCA2^−/− (clones C1 and C2) RPE-1 cells with and without BRCA2 cDNA complementation, after transfection with the indicated NMNAT1 siRNAs. b, Clonogenic formation (left) and WB-analysis (right) of BRCA2 mAID HeLa cells in the presence or absence of auxin (IAA) after transduction with viral particles carrying NMNAT1 shRNA or control. c, Clonogenic formation of WT and BRCA1^−/− RPE-1 cells after transfection with siNMNAT1 #2. d, Clonogenic formation of WT and NMNAT1^−/− RPE-1 cells after transfection with the indicated BRCA1/2 siRNAs. e, Quantification (left) and representative images (right) of clonogenic formation of the indicated HR-proficient and HR-deficient cells upon siNMNAT1. f, DNA damage quantification by alkaline COMET assay of P53−/− RPE-1 cells in the presence or absence of NMNAT1. g, Survival assay of WT and NMNAT1^−/− RPE-1 cells exposed to the indicated doses of the PARP inhibitor rucaparib (PARPi).
Accumulation of DNA lesions can result in increased sensitivity to genotoxic drugs. Given that NMNAT1 functions upstream of PARP1 by providing NAD^+, the reduced PARP1 activity upon NMNAT1 loss might account for the observed synthetic lethality between NMNAT1 and BRCA.

The subject of assay [1] is PARPi-resistant OVCAR8 xenografts. Kind of assay: PARPi-resistant xenograft tumor growth and survival. It is filed as in vivo, athymic nude mice. The settings on record: versus vehicle; FIG. 6A. An excerpt: FIG. 6: NMNAT1 inhibition kills PARPi-resistant HRD tumors in vivo. A. Growth (relative tumor volume, RTV) of parental and PARPi-resistant OVCAR8 xenografts in vivo upon PARPi (rucaparib) or vehicle treatment. B, Growth (relative tumor volume, RTV) of PARPi-resistant OVCAR8 xenografts in vivo. C, Relative tumour volumes (RTV) for individual mice treated in B after five weeks of treatment. D, Overall survival for mice bearing PARPi-resistant OVCAR8 xenografts treated with vehicle or doxycycline. For data shown in FIG. 6, the PARPi-resistant OVCAR8 cells were xenotransplanted subcutaneously in athymic nude mice. Doxycycline was supplemented in the food (625 p.p.m.).
To translate these findings into a translational setting, the inventors derived a PARPi-resistant clone from the PARPi-naive BRCA1-deficient OVCAR8 lines, expressed either doxycycline-inducible NMNAT1 or scrambled (Scr) shRNA in these cells, and xenograft them in athymic nude mice.
As expected the OVCAR8 PARPi-resistant cells were resistant to the PARPi rucaparib in vivo (FIG. 6A).

With `CNCc1ccc(-c2[nH]c3cc(F)cc4c3c2CCNC4=O)cc1` [rucaparib], in the assay with NMNAT1−/− RPE-1 cells, the “sensitivity to PARP inhibitor (survival)” value is recorded as “sensitized”. Moreover, the “response of tumor to PARPi in vivo” value in assay [1] is on record as “resistant”.
